{"source": "patent US20250057963A1", "about": "“DISCOVERY OF PIPERLONGUMINE AS A NOVEL E3 LIGASE LIGAND” (University of Florida Research Foundation, Incorporated, priority 2021, published 2025)", "key": {"[1]": {"tested_on": "LNCaP prostate cancer cells and H1299 lung cancer cells", "assay": "Cell killing (MTS) with or without KEAP1 siRNA knockdown", "type": "cell-based, Human", "conditions": "KEAP1 siRNA vs control siRNA 48 h; compound 0.1 mM (LNCaP) or 0.3 mM (H1299) for 24 h", "protocol": "FIGS. 19A to 19B show percentages of cell killing in LNCaP (FIG. 19A) and H1299 (FIG. 19B) cells with or without KEAP1 knockdown. LNCaP and H1299 cells were treated with control siRNA or siRNAs targeting KEAP1 for 48 h and then reseeded and treated with indicated compound (0.1 mM for LNCaP cells and 0.3 mM for H1299 cells) for 24 h. The cell viability was then determined by MTS assay. The data are presented as mean±SD from three replicate cell cultures in a representative experiment. Data are representative of two independent experiments. Statistical significance was calculated with unpaired two-tailed Student's t-tests. **P<0.01; ***P<0.001; NS: not significant.\n(§1) Viability (MTS) assays in various cancer cells followed the methods described in our previous report (Khan et al., 2019). The data were expressed as average % cell viability and fitted in non-linear regression curves using GraphPad Prism 9 (GraphPad Software, La Jolla, CA, USA)."}, "CDK9": {"molecular_target": "CDK9 (Homo sapiens, UniProt P50750)", "sequence (P50750 whole entry)": "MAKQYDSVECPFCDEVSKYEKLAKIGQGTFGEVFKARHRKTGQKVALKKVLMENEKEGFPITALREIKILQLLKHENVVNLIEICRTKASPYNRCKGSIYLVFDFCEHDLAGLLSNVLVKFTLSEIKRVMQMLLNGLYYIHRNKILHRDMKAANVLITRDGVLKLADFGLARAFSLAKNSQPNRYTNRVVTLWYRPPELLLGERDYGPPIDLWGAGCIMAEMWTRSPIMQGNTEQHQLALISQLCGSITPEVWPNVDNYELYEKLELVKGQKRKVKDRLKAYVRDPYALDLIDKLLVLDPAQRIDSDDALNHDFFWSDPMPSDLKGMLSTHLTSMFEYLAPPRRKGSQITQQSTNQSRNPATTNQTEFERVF", "assay": "955-induced CDK9 degradation in H1299 cells after KEAP1, TRIP12 or TRAF6 knockdown/knockout and KEAP1 rescue", "type": "cell-based", "parameters": "endogenous in cells; host or cells: MOLT4, 293T, K562, NCI-H1299, LNCaP", "protocol": "(§2) Cells were collected and lysed in RIPA lysis buffer (Cat. #BP-115DG, Boston Bio Products, Ashland, MA, USA) supplemented with protease and phosphatase inhibitor cocktails (Cat. #PPC1010, Sigma-Aldrich, St. Louis, MO, USA). Protein samples were made and immunoblotting was performed as described previously (Khan et al., 2019; Lv et al., 2021). Antibodies purchased from Cell Signaling Technologies (CST) and the dilutions are as follows: Biotin (Cat. No. 5571S, 1:1000), PARP (Cat. No. 9542S, 1:1000), c-Myc (Cat. No. 5605S, 1:1000), MCL1 (Cat. No. 5453S, 1:1000), and ALK (Cat. No. 3791S, 1:1000). KEAP1 antibody was purchased from Proteintech (Cat. No. 10503-2-AP, 1:1000). CDK9 antibody was purchased from Santa Cruz (Cat. No. sc-13130, 1:500). V5-tag antibody was purchased from Bethyl (Cat. No. A190-120P, 1:1000). j-actin antibody was purchased from MP Biomedicals (Cat. No. 8691001, 1:20 000).\nTo knockout KEAP1, two lentiviral CRISPR knockout plasmids targeting human KEAP1 gene were purchased from Abm (Cat. No. 254911110595). Packaging 293T cells were transfected with KEAP1 single guide RNA (sgRNA) and helper vectors (pMD2.G and psPAX2; Addgene plasmid #12259 and 12260) using Lipofectamine 3000 reagent (Cat. No. L3000015, Thermal Fisher). Medium containing lentiviral particles and 8 µg/mL polybrene (Sigma-Aldrich) was used to infect H1299 cells. Infected cells were selected in medium containing […] puromycin. The sgRNA target sequences are as follows: sg1: […]; sg2: […]. Single clones were selected by serial dilution.\nKEAP1-sg1 knockout H1299 (4×10^5) cells were transfected with or without plasmid expressing Halo-KEAP1 (Addgene, a gift from Yimon Aye, plasmid #58240) using Lipofectamine 3000 reagent (Cat. No. L3000015, Thermal Fisher). After 24 h, the cells in each well of 6-well plate were divided into two wells and cultured for additional 16 h."}, "PARP": {"tested_on": "PARP", "assay": "PARP cleavage (apoptosis indicator) in MOLT4 cells", "type": "cell-based, Human", "conditions": "6 h", "protocol": "as §2"}, "MOLT4 cells": {"tested_on": "MOLT4 cells", "assay": "Viability (MTS) assay in MOLT4 cells", "type": "cell-based, Human", "conditions": "72 h treatment", "protocol": "Human T-ALL MOLT4 (Cat. No. CRL-1582), K562 (Cat. No. CCL-243), NCI-H1299 (Cat. No. CRL-5803), NCI-H2228 (Cat. No. CRL-5935), LNCaP (Cat. No. CRL-1740), 22RV1 (Cat. No. CRL-2505), PC3 (Cat. No. CRL-1435), DU145 (Cat. No. HTB-81), and epithelial kidney HEK 293T (293T, Cat. No. ACS-4500) cell lines were recently purchased from American Type Culture Collection (ATCC, Manassas, VA, USA). MOLT4, K562, NCI—H-1299, NCI-H2228, LNCap, and 22RV 1 cell lines were cultured in RPMI 1640 medium (Cat No. 22400-089, Thermo Fisher Scientific, Waltham, MA, USA) supplemented with 10% (v/v) heat-inactivated fetal bovine serum (FBS, Cat. No. S11150H, Atlanta Biologicals, Flowery Branch, GA, USA), 100 U/mL penicillin and 100 pig/mL streptomycin (Pen-Strep, Cat. No. 15140122, Thermo Fisher Scientific). PC3 cells were cultured in complete F—12K medium (Kaighn's modification of Ham's F-12 medium, Cat. No. 30-2004, ATCC) supplemented with 10% (v/v) heat-inactivated FBS, 100 U/mL penicillin, and 100 μg/mL streptomycin. […]\nas §1"}}, "note": "“Also recorded” adds a separate entry of the source.", "data": [{"smiles": "COc1cc(/C=C/C(=O)N2CCC=CC2=O)cc(OC)c1OCCN1CCN(C(=O)CN2CCC(C(=O)Nc3ncc(SCc4ncc(C(C)(C)C)o4)s3)CC2)CC1", "note": "[compound 955, (E)-N-(5-(((5-(tert-butyl)oxazol-2-yl)methyl)thio)thiazol-2-yl)-1-(2-(4-(2-(2,6-dimethoxy-4-(3-oxo-3-(6-oxo-3,6-dihydropyridin-1(2H)-yl)prop-1-en-1-yl)phenoxy)ethyl)piperazin-1-yl)-2-oxoethyl)piperidine-4-carboxamide]", "values": [{"measurement": "effect of KEAP1 knockdown on cytotoxicity of the compound", "setting": "[1]", "result": "attenuated the cytotoxicity"}, {"measurement": "955-induced CDK9 degradation after KEAP1 knock down/out (siRNA, CRISPR-Cas9)", "setting": "CDK9; H1299 cells", "result": "blocked after depleting KEAP1"}, {"measurement": "955-induced CDK9 degradation after TRIP12 or TRAF6 siRNA knockdown", "setting": "CDK9; H1299 cells, 6 h", "result": "had no effect"}, {"measurement": "955-induced CDK9 degradation after ectopic Halo-tagged KEAP1 in KEAP1 stable knockout cells", "setting": "CDK9; KEAP1-sg1 knockout H1299 cells, 955 for 6 h", "result": "rescued CDK9 degradation"}, {"measurement": "induction of PARP cleavage / apoptotic cell death compared with SNS-032", "setting": "PARP", "result": "more apoptotic cell death compared with SNS-032; also recorded: more potent in inducing PARP cleavage than SNS-032"}, {"measurement": "potency to kill MOLT4 cells compared with SNS-032", "setting": "MOLT4 cells", "result": "more potent to kill MOLT4 cells compared with SNS-032"}]}]}
